Measured values: patent publication EP1333824B1, “TREATMENT OF SEXUAL DYSFUNCTION WITH BOMBESIN RECEPTOR ANTAGONISTS” (Warner-Lambert Company LLC, priority 2000, dated 2002)

Biological target: T1, human GRP receptor (BB2) (Homo sapiens, UniProt P30550)
T1 construct: expressed in transfected cells
Test: BB2 binding assay ([125I][Tyr4]bombesin, CHO-K1 cell membranes)
Conditions: Table 7; N-terminal sulfonamide derivatives
Protocol: In the following experiments, measurement of BB1 and BB2 binding was as follows. […] The final pellet was resuspended in assay buffer to a final cell concentration of 1.5 × 10^5/mL. […] Nonspecific binding was defined by 1µM bombesin. […] Radioactivity bound was determined using a gamma counter.
All competition data was analysed using nonlinear regression utilizing iterative curve-plotting procedures in Prism® (GraphPad Software Inc., San Diego, USA).

T1 sequence (P30550 whole entry): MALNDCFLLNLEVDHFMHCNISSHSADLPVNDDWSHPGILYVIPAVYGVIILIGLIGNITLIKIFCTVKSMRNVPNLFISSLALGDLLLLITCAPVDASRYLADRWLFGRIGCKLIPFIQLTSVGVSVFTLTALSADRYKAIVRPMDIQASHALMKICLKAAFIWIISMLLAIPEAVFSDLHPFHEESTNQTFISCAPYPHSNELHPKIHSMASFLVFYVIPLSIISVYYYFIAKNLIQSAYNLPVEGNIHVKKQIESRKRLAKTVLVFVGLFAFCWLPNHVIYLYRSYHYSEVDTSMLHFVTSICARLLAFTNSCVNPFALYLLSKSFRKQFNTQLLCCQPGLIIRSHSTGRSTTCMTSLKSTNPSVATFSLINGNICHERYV

Compound | IC50 [µM] | BB2 IC50
C[C@@](Cc1c[nH]c2ccccc12)(NS(=O)(=O)c1cccc2nsnc12)C(=O)NCC1(c2ccccn2)CCCCC1 [Example 137, (S)-2-(Benzo[1,2,5]thiadiazole-4-sulfonylamino)-3-(1H-indol-3-yl)-2-methyl-N-(1-pyridin-2-yl-cyclohexylmethyl)-propionamide] | > 10 | 
Cn1cnc(S(=O)(=O)N[C@@](C)(Cc2c[nH]c3ccccc23)C(=O)NCC2(c3ccccn3)CCCCC2)c1 [Example 138, (S)-3-(1H-Indol-3-yl)-2-methyl-2-(1-methyl-1H-imidazole-4-sulfonylamino)-N-(1-pyridin-2-yl-cyclohexylmethyl)-propionamide] | > 10 | 
C[C@@](Cc1c[nH]c2ccccc12)(NS(=O)(=O)c1cccc2nonc12)C(=O)NCC1(c2ccccn2)CCCCC1 [Example 139, (S)-2-(Benzo[1,2,5]oxadiazole-4-sulfonylamino)-3-(1H-indol-3-yl)-2-methyl-N-(1-pyridin-2-yl-cyclohexylmethyl)-propionamide] | > 10 | 
COC(=O)c1sccc1S(=O)(=O)N[C@@](C)(Cc1c[nH]c2ccccc12)C(=O)NCC1(c2ccccn2)CCCCC1 [Example 140, 3-{(S)-2-(1H-Indol-3-yl)-1-methyl-1-[(1-pyridin-2-yl-cyclohexylmethyl)-carbamoyl]-ethylsulfamoyl}-thiophene-2-carboxylic acid methyl ester] | > 10 | 
C[C@@](Cc1c[nH]c2ccccc12)(NS(=O)(=O)c1ccc(-c2ccon2)s1)C(=O)NCC1(c2ccccn2)CCCCC1 [Example 141, (S)-3-(1H-Indol-3-yl)-2-(5-isoxazol-3-yl-thiophene-2-sulfonylamino)-2-methyl-N-(1-pyridin-2-yl-cyclohexylmethyl)-propionamide] | > 10 | 
C[C@@](Cc1c[nH]c2ccccc12)(NS(=O)(=O)Cc1ccccc1[N+](=O)[O-])C(=O)NCC1(c2ccccn2)CCCCC1 [Example 142, (S)-3-(1H-Indol-3-yl)-2-methyl-2-(2-nitro-phenylmethanesulfonylamino)-N-(1-pyridin-2-yl-cyclohexylmethyl)-propionamide] | > 10 | 
C[C@@](Cc1c[nH]c2ccccc12)(NS(=O)(=O)c1cccc(C#N)c1)C(=O)NCC1(c2ccccn2)CCCCC1 [Example 143, (S)-2-(3-Cyano-benzenesulfonylamino)-3-(1H-indol-3-yl)-2-methyl-N-(1-pyridin-2-yl-cyclohexylmethyl)-propionamide] | > 10 | 
Cc1nc(S(=O)(=O)N[C@@](C)(Cc2c[nH]c3ccccc23)C(=O)NCC2(c3ccccn3)CCCCC2)cn1C [Example 144, (S)-2-(1,2-Dimethyl-1H-imidazole-4-sulfonylamino)-3-(1H-indol-3-yl)-2-methyl-N-(1-pyridin-2-yl-cyclohexylmethyl)-propionamide] | > 10 | 
C[C@@](Cc1c[nH]c2ccccc12)(NS(=O)(=O)c1cccc2cccc([N+](=O)[O-])c12)C(=O)NCC1(c2ccccn2)CCCCC1 [Example 146, (S)-3-(1H-Indol-3-yl)-2-methyl-2-(8-nitro-naphthalene-1-sulfonylamino)-N-(1-pyridin-2-yl-cyclohexylmethyl)-propionamide] | > 10 | 
C[C@@](Cc1c[nH]c2ccccc12)(NS(=O)(=O)c1cc([N+](=O)[O-])ccc1Cl)C(=O)NCC1(c2ccccn2)CCCCC1 [Example 147, (S)-2-(2-Chloro-5-nitro-benzenesulfonylamino)-3-(1H-indol-3-yl)-2-methyl-N-(1-pyridin-2-yl-cyclohexylmethyl)-propionamide] |  | Ia
C[C@@](Cc1c[nH]c2ccccc12)(NS(=O)(=O)c1c(Cl)cc(Cl)cc1Cl)C(=O)NCC1(c2ccccn2)CCCCC1 [Example 148, (S)-3-(1H-Indol-3-yl)-2-methyl-N-(1-pyridin-2-yl-cyclohexylmethyl)-2-(2,4,6-trichloro-benzenesulfonylamino)-propionamide] |  | Ia
C[C@@](Cc1c[nH]c2ccccc12)(NS(=O)(=O)c1ccc(Cl)cc1[N+](=O)[O-])C(=O)NCC1(c2ccccn2)CCCCC1 [Example 149, (S)-2-(4-Chloro-2-nitro-benzenesulfonylamino)-3-(1H-indol-3-yl)-2-methyl-N-(1-pyridin-2-yl-cyclohexylmethyl)-propionamide] | > 10 | 
C[C@@](Cc1c[nH]c2ccccc12)(NS(=O)(=O)c1ccc(S(=O)(=O)c2ccccc2)s1)C(=O)NCC1(c2ccccn2)CCCCC1 [Example 150, (S)-2-(5-Benzenesulfonyl-thiophene-2-sulfonylamino)-3-(1H-indol-3-yl)-2-methyl-N-(1-pyridin-2-yl-cyclohexylmethyl)-propionamide] | > 10 | 
C[C@@](Cc1c[nH]c2ccccc12)(NS(=O)(=O)c1ccc(OC(F)(F)F)cc1)C(=O)NCC1(c2ccccn2)CCCCC1 [Example 151, (S)-3-(1H-Indol-3-yl)-2-methyl-N-(1-pyridin-2-yl-cyclohexylmethyl)-2-(4-trifluoromethoxy-benzenesulfonylamino)-propion amide] | > 10 | 
COC(=O)c1ccccc1S(=O)(=O)N[C@@](C)(Cc1c[nH]c2ccccc12)C(=O)NCC1(c2ccccn2)CCCCC1 [Example 155, 2-{(S)-2-(1H-Indol-3-yl)-1-methyl-1-[(1-pyridin-2-yl-cyclohexylmethyl)-carbamoyl]-ethylsulfamoyl} -benzoic acid methyl ester] | > 10 | 
COc1cc(C)ccc1S(=O)(=O)N[C@@](C)(Cc1c[nH]c2ccccc12)C(=O)NCC1(c2ccccn2)CCCCC1 [Example 159, (S)-3-(1H-Indol-3-yl)-2-(2-methoxy-4-methyl-benzenesulfonylamino)-2-methyl-N-(1-pyridin-2-yl-cyclohexylmethyl)-propionamide] | > 10 | 
C[C@@](Cc1c[nH]c2ccccc12)(NS(=O)(=O)c1ccc(-c2ccccn2)s1)C(=O)NCC1(c2ccccn2)CCCCC1 [Example 160, (S)-3-(1H-Indol-3-yl)-2-methyl-N-(1-pyridin-2-yl-cyclohexylmethyl)-2-(5-pyridin-2-yl-thiophene-2-sulfonylamino)-propionamide] | > 10 | 
C[C@@](Cc1c[nH]c2ccccc12)(NS(=O)(=O)c1cnc(Cl)c(Br)c1)C(=O)NCC1(c2ccccn2)CCCCC1 [Example 161, (S)-2-(5-Bromo-6-chloro-pyridine-3-sulfonylamino)-3-(1H-indol-3-yl)-2-methyl-N-(1-pyridin-2-yl-cyclohexylmethyl)-propionamide] | > 10 | 
C[C@@](Cc1c[nH]c2ccccc12)(NS(=O)(=O)c1ccc([N+](=O)[O-])cc1[N+](=O)[O-])C(=O)NCC1(c2ccccn2)CCCCC1 [Example 162, (S)-2-(2,4-Dinitro-benzenesulfonylamino)-3-(1H-indol-3-yl)-2-methyl-N-(1-pyridin-2-yl-cyclohexylmethyl)-propionamide] | > 10 | 
C[C@@](Cc1c[nH]c2ccccc12)(NS(=O)(=O)c1ccc(S(C)(=O)=O)cc1)C(=O)NCC1(c2ccccn2)CCCCC1 [Example 163, (S)-3-(1H-Indol-3-yl)-2-(4-methanesulfonyl-benzenesulfonylamino)-2-methyl-N-(1-pyridin-2-yl-cyclohexylmethyl)-propionamide] | > 10 | 
CC(C)(C)c1ccc(S(=O)(=O)N[C@@](C)(Cc2c[nH]c3ccccc23)C(=O)NCC2(c3ccccn3)CCCCC2)cc1 [Example 164, (S)-2-(4-tert-Butyl-benzenesulfonylamino)-3-(1H-indol-3-yl)-2-methyl-N-(1-pyridin-2-yl-cyclohexylmethyl)-propionamide] | > 10 | 
Cc1cc(S(=O)(=O)N[C@@](C)(Cc2c[nH]c3ccccc23)C(=O)NCC2(c3ccccn3)CCCCC2)c(Cl)cc1Cl [Example 165, (S)-2-(2,4-Dichloro-5-methyl-benzenesulfonylamino)-3-(1H-indol-3-yl)-2-methyl-N-(1-pyridin-2-yl-cyclohexylmethyl)-propionamide] | > 10 | 
C[C@@](Cc1c[nH]c2ccccc12)(NS(=O)(=O)c1ccc(Cl)c(C(F)(F)F)c1)C(=O)NCC1(c2ccccn2)CCCCC1 [Example 166, (S)-2-(Chloro-trifluoromethyl-benzenesulfonylamino)-3-(1H-indol-3-yl)-2-methyl-N-(1-pyridin-2-yl-cyclohexylmethyl)-propionamide] | > 10 | 
CCCCc1ccc(S(=O)(=O)N[C@@](C)(Cc2c[nH]c3ccccc23)C(=O)NCC2(c3ccccn3)CCCCC2)cc1 [Example 168, (S)-2-(4-Butyl-benzenesulfonylamino)-3-(1H-indol-3-yl)-2-methyl-N-(1-pyridin-2-yl-cyclohexylmethyl)-propionamide] | > 10 | 
